Each block holds one molecule with its values, some of them ahead of it.
Columns and labels:
[1] = system: CT26 murine colon carcinoma cells; test: In vivo antitumor efficacy and safety in CT26 tumor-bearing BALB/c mice; settings: for tumor weight reduction / relative tumor volume growth rate (T/C): CT26 tumor-bearing BALB/c mice; for tumor weight reduction: 21 days
Excerpt: Given its promising in vitro enzymatic potencies, compound NK3 was further evaluated for antitumor efficacy in vivo with a model by injecting immunocompetent BALB/c mice with CT26 murine colon carcinoma cells (Figure 5). CT26 cells, derived from the epithelial glands of BALB/C mice with colon cancer, are commonly employed as a model for investigating immunotherapies and studying host immune responses. […] Dose-dependent growth-inhibitory potency of NK3 was observed (Figure 5B).
Figure 5 In vivo antitumor activity of compound NK3 in CT26 tumor-bearing mice. […] (B) Tumor weight of the excised tumors of each group. (C) Tumor volume of the mice in each group during the observation period. (D) Body weight of the mice from each group at the end of the observation period. Body weight change of each group of mice. The data were presented as the mean ± SD. p < 0.05 (versus the vehicle control group). The antitumor assay in CT26 tumor-bearing mice was carried out in one experiment with previous work.
Pathological analysis of tissue sections from major organs (heart, liver, lung, spleen, and kidney) of CT26 tumor-bearing mice. Hematoxylin and eosin (H&E) were used to stain the organs with representative images captured. The H&E staining of CT26 tumor-bearing mice was carried out in one experiment with previous work.

[2] = system: Hct-116; test: MTT cytotoxicity assay, Hct-116; format: cell-based; settings: Homo sapiens, mean ± SD
Description: (§1) The cytotoxic activity of these three compounds was evaluated against HepG2, Hct-116, and SKOV3 cancer cells by MTT assay, using doxorubicin (DOX) as the positive control.

[3] = system: SKOV3; test: MTT cytotoxicity assay, SKOV3; format: cell-based; settings: Homo sapiens, SK-OV-3, mean ± SD
Description: as §1

[4] = system: HepG2; test: MTT cytotoxicity assay, HepG2; format: cell-based; settings: Homo sapiens, mean ± SD
Description: as §1

[5] = biological target: T1, human IDO1 (Homo sapiens, UniProt P14902); test: IDO1 standard enzymatic inhibition assay
[6] = biological target: T1, human IDO1; test: SPR binding assay (Biacore T200) with IDO1; settings: immobilized recombinant IDO1, 0.078-10.0 μM, read-out: KD (equilibrium dissociation constant) with IDO1
Description: A surface plasmon resonance (SPR)-based binding assay was conducted to validate the direct interaction between NK3 and IDO1 protein using a Biacore T200 optical biosensor. This analytical method is valuable for determining the kinetic and thermodynamic parameters of ligand–protein complex formation and is widely employed in the study of enzyme–enzyme/inhibitor interactions. The binding affinity between compound NK3 and IDO1 was assessed utilizing Biacore analysis software, accompanied by measurements of kinetic association and dissociation. As depicted in Figure 3, compound NK3 efficiently interacted with the immobilized protein to induce a concentration-dependent response for association or dissociation, respectively. […] The binding assays confirmed the direct binding of compound NK3 to IDO1 protein.
Figure 3 The binding affinity of NK3 with recombinant IDO1 determined by the SPR assay. Concentration from top to bottom: 0.078 μM, 0.156 μM, 0.313 μM, 0.625 μM, 1.25 μM, 2.5 μM, 5.0 μM, and 10.0 μM.

[7] = biological target: recombinant STAT3 (Homo sapiens, UniProt P40763); test: SPR binding assay (BIAcore) with STAT3; settings: recombinant STAT3, 0.078-10.0 μM, read-out: KD (equilibrium dissociation constant) with STAT3
Description: In order to further investigate the direct interaction between NK3 and STAT3, we conducted an SPR binding assay.
Figure 8 The binding affinity of NK3 with recombinant STAT3 determined by the SPR assay. Concentration from top to bottom: 0.078 μM, 0.156 μM, 0.313 μM, 0.625 μM, 1.25 μM, 2.5 μM, 5.0 μM, and 10.0 μM.

[8] = system: STAT3 nuclear translocation; test: Immunofluorescence staining of IL-6-induced STAT3 nuclear translocation in HepG2 cells; format: cell-based, human; settings: 2 μM, IL-6 stimulation 30 min
Description: The central role of nuclear translocation in the functioning of transcription factors is evident. The activation of STAT3 transcription is reliant on its nuclear translocation and subsequent binding to target DNA [43], so we further investigated the inhibitory effect of NK3 on preventing STAT3 from translocating to the nucleus by immunofluorescence staining. To this end, HepG2 cells were treated with 2 μM NK3 for […], and then IL-6 was added to stimulate STAT3 translocation for 30 min.
Figure 9 NK3 inhibited the nuclear translocation of STAT3. […] Cells were treated with 2 μM NK3 for 12 h with or without pre-treatment with 50 ng/mL of IL-6 for 30 min. Then, cells were fixed and stained with anti-p-STAT3 and DAPI before being subjected to Zeiss LSM700 Confocal Microscope for analysis.

[9] = system: human liver cancer HepG2 cells xenograft; test: In vivo antitumor efficacy in nude mice bearing HepG2 xenograft; settings: for tumor growth inhibition (tumor weight): 21 days
Excerpt: In order to ascertain the viability of IDO1 as an alternative target for compound NK3, a xenograft model was established by inoculating nude mice with human liver cancer HepG2 cells, subsequent to two injections of two doses of NK3 administered at three-day intervals. […] The antitumor effect of NK3 was also reflected in a delayed increase in xenograft volume (Figure 7C).
Figure 7 In vivo antitumor activity of compound NK3 in nude mice bearing HepG2 xenograft model. (A) The images of the harvested tumors from the mice after administration with NK3 (10 and 20 mg/kg) and the positive control doxorubicin (DOX) (5 mg/kg) every 3 days for 3 weeks. (B) Tumor weight of the excised tumors of each group. (C) Tumor volume of the mice in each group during the observation period. (D) Body weight of the mice from each group at the end of the observation period. Body weight change of each group of mice. The data were presented as the mean ± SD. p < 0.05 (versus the vehicle control group). The antitumor assay in nude mice was carried out in one experiment with previous work. TEXT PRINTED IN THE PICTURE: (B) Dox: 53.0% (5 mg/kg) | (B) NK-3: 61.1% (10 mg/kg); 64.4% (20 mg/kg) DOUBTS OF THE COPYIST ABOUT THIS PICTURE: Panel B: the picture prints no measure for the percentages over the bars (53.0%, 61.1%, 64.4%). The axis reads only 'Tumor weight (g)', so they are copied without a measure.

T1 sequence (P14902 whole entry): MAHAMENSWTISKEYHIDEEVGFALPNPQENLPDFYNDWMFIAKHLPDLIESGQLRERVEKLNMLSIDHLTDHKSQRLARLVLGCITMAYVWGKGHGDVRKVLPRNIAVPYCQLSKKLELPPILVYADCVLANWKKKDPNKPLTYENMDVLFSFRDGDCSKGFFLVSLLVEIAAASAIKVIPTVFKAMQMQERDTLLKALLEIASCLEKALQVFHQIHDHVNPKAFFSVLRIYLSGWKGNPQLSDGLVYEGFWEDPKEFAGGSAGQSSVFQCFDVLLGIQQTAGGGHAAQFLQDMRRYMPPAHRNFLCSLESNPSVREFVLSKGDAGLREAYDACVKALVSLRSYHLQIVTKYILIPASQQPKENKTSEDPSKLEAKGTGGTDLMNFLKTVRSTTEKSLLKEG
recombinant STAT3, sequence (P40763 whole entry, species assumed): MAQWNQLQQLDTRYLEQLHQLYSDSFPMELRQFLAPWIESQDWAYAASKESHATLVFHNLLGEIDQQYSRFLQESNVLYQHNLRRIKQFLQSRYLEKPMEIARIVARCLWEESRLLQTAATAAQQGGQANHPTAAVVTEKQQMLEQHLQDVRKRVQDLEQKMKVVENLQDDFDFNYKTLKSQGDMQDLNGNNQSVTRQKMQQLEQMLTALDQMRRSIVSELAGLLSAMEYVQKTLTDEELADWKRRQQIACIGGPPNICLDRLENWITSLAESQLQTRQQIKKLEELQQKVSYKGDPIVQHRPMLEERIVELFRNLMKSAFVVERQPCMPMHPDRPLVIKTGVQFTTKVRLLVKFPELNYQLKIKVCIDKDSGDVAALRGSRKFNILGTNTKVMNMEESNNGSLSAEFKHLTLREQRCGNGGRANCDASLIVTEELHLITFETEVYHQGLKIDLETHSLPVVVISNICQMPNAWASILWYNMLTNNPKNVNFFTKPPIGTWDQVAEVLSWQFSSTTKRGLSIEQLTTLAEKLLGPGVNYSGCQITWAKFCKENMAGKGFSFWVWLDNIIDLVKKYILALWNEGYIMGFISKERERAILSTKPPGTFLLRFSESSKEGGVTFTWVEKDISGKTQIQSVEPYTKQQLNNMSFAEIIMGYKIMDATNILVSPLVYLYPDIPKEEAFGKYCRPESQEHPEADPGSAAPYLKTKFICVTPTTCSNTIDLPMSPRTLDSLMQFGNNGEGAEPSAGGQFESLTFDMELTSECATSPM

SMILES: Cn1cc(C[C@H](N)C(=O)O)c2ccccc21 [Compound 1-MT, 1-methyl-L-tryptophan, reference compound]
tumor weight reduction ([1]; 100 mg/kg intraperitoneal): 45.6%

SMILES: COc1cccc2c1C(=O)c1c(O)c3c(c(O)c1C2=O)C[C@@](O)(C(=O)CO)C[C@@H]3O[C@H]1C[C@H](N)[C@H](O)[C@H](C)O1 [DOX, doxorubicin, reference compound]
IC50 [2]: 0.37 ± 0.02 µM
IC50 [3]: 0.58 ± 0.28 µM
IC50 [4]: 0.28 ± 0.03 µM

SMILES: Nc1nonc1C(=NO)Nc1ccc(F)c(Cl)c1 [IDO5L, reference compound]
IC50 [2]: > 40 µM
IC50 [3]: > 40 µM
tumor weight reduction ([1]; 100 mg/kg intraperitoneal): 70.9%
IC50 [4]: > 40 µM

IC50 [5]: 3450 nM
melting point: 120.3 to 121.8 °C
SMILES: CCCCC(CC)CNC(=O)C(Cc1ccccc1)NC1=C/C(=N/O)c2ccccc2C1=O (stereo not shown) [NK1, (Z)-N-(2-ethylhexyl)-2-((4-(hydroxyimino)-1-oxo-1,4-dihydronaphthalen-2-yl)amino)-3-phenylpropanamide]
IC50 [2]: 0.49 ± 0.14 µM
IC50 [3]: 0.95 ± 0.18 µM
IC50 [4]: 1.28 ± 0.27 µM

IC50 [5]: 8220 nM
melting point: 197.2 to 198.6 °C
SMILES: O=C1C(NC(Cc2ccccc2)C(=O)NCCc2ccccc2)=C/C(=N/O)c2ccccc21 (stereo not shown) [NK2, (Z)-2-((4-(hydroxyimino)-1-oxo-1,4-dihydronaphthalen-2-yl)amino)-N-phenethyl-3-phenylpropanamide]
IC50 [2]: 5.84 ± 1.34 µM
IC50 [3]: 4.25 ± 1.65 µM
IC50 [4]: 5.08 ± 0.33 µM

SMILES: CCCNC(=O)C(Cc1ccccc1)NC1=C/C(=N/O)c2ccccc2C1=O (stereo not shown) [NK3, (Z)-2-((4-(hydroxyimino)-1-oxo-1,4-dihydronaphthalen-2-yl)amino)-3-phenyl-N-propylpropanamide]
IC50 [2]: 0.18 ± 0.04 µM
IC50 [5]: 60 nM
IC50 [3]: 0.48 ± 0.23 µM
relative tumor volume growth rate (T/C) ([1]; 50 mg/kg): 56.00%
tumor weight reduction ([1]; 50 mg/kg intraperitoneal): 42.8%
relative tumor volume growth rate (T/C) ([1]; 100 mg/kg): 29.07%
tumor weight reduction ([1]; 100 mg/kg intraperitoneal): 65.8%
pathology (H&E) of heart, liver, spleen, lung, kidney ([1]; CT26 tumor-bearing mice): no obvious morphological and pathological changes
body weight change versus vehicle ([1]; CT26 tumor-bearing mice, 21 days of treatment): no significant change in body weight
Kd [6]: 160 nM
Kd [7]: 170 nM
STAT3 nuclear translocation [8]: significantly inhibited
IC50 [4]: 0.16 ± 0.04 µM
tumor growth inhibition (tumor weight) ([9]; 10 mg/kg intravenous every 3 days): 61.1%
tumor growth inhibition (tumor weight) ([9]; 20 mg/kg intravenous every 3 days): 64.4%
body weight / tolerability ([9]; compared to DOX): did not cause significant weight loss

Reference: publication PMC10459814
